Eight compounds from PubChem BioAssay (NCI) can be followed below.

By GI50 is commonly meant the concentration giving 50% growth inhibition. For orientation: TGI means the concentration giving total growth inhibition. A low value points to more potent growth arrest.

Test systems include SK-MEL-2 melanoma; HOP-92 NSCLC; HS 578T breast; TK-10 renal; MOLT-4 leukemia; OVCAR-4 ovarian; MALME-3M melanoma; SF-295 CNS; LOX IMVI melanoma; SF-268 CNS.
Test in all cases: DTP human tumour cell line panel, 48 h

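96-well plates; 48 h exposure; 5 concentrations. Endpoints by linear interpolation between flanking doses. Not reached: highest tested concentration assigned. The concentration for 50% growth inhibition is given as GI50. TGI is the concentration that stops growth completely.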 Bounds are passed on as bounds.

Turning to `Clc1ccc2c(NCCNc3nc(N4CCCCC4)nc4ccccc34)ccnc2c1`, the GI50 with SK-MEL-2 melanoma is 1.79 µM; in the assay with HOP-92 NSCLC it was 1.62 µM; with HS 578T breast, 3.04 µM; in the assay on TK-10 renal it was 2.15 µM; in the assay on MOLT-4 leukemia, 2.29 µM; in the assay on OVCAR-4 ovarian it was 2.81 µM. Further, the GI50 was 2.05 µM with MALME-3M melanoma, 1.71 µM with SF-295 CNS, 1.58 µM in the assay with LOX IMVI melanoma and 2.39 µM in the assay on SF-268 CNS. Besides, the TGI is 3.83 µM in the assay with SK-MEL-2 melanoma; 3.24 µM in the assay with HOP-92 NSCLC; 8.39 µM in the assay on HS 578T breast; 5.13 µM in the assay on TK-10 renal; 11.8 µM in the assay with MOLT-4 leukemia; 13.8 µM with OVCAR-4 ovarian. Further, the TGI was determined as 4.05 µM in the assay with MALME-3M melanoma, 3.23 µM with SF-295 CNS, 3.36 µM in the assay with LOX IMVI melanoma and 7.33 µM in the assay on SF-268 CNS.
In the case of `COc1ccc2c3c1OC1C4(CCC5C(C2)N(CC2CC2)CCC351)OCCO4` (stereo not given), the TGI in the assay with SK-MEL-2 melanoma, in the assay with HOP-92 NSCLC, in the assay on HS 578T breast, with TK-10 renal, in the assay on MOLT-4 leukemia and in the assay with OVCAR-4 ovarian was greater than 100 µM each time. Further, the TGI in the assay with MALME-3M melanoma, in the assay with SF-295 CNS, in the assay on LOX IMVI melanoma and with SF-268 CNS was greater than 100 µM in each case.
On to `COC(=O)[C@]12CC[C@@H](C)[C@H](C)[C@@H]1C1=CC[C@@H]3[C@@]4(C)C(C=O)=C[C@@](C)(COC(=O)c5ccco5)C4=CC[C@@]3(C)[C@]1(C)CC2`, for which the GI50 is 0.273 µM in the assay on SK-MEL-2 melanoma; 0.671 µM in the assay on HOP-92 NSCLC; 3.72 µM with HS 578T breast; 2.42 µM in the assay with TK-10 renal; 2.11 µM in the assay with MOLT-4 leukemia; 3.54 µM in the assay with OVCAR-4 ovarian. Besides, the GI50 is 0.0383 µM with MALME-3M melanoma, 2.39 µM with SF-295 CNS, 1.7 µM in the assay on LOX IMVI melanoma and 2.93 µM in the assay with SF-268 CNS. In addition, the TGI in the assay with SK-MEL-2 melanoma came out at 0.743 µM; with HOP-92 NSCLC, 7.71 µM; with HS 578T breast, 34.1 µM; in the assay with TK-10 renal, 12.5 µM; in the assay with MOLT-4 leukemia, 7.1 µM; in the assay with OVCAR-4 ovarian, 22.4 µM. The TGI with MALME-3M melanoma worked out at 0.444 µM; in the assay with SF-295 CNS, 8.83 µM; in the assay on LOX IMVI melanoma, 3.15 µM; with SF-268 CNS it was 9.92 µM.
In the case of `NC1=C(/C(N)=N/O)C(c2ccccc2)c2ccc3ccccc3c2O1` (stereo not given), the GI50 is 19.9 µM with SK-MEL-2 melanoma; 0.579 µM in the assay on HOP-92 NSCLC; 0.276 µM in the assay with HS 578T breast; 20.2 µM in the assay with TK-10 renal; 0.496 µM in the assay with MOLT-4 leukemia; 0.831 µM in the assay with OVCAR-4 ovarian. Also, the GI50 with MALME-3M melanoma is 2.29 µM; with SF-295 CNS, 0.321 µM; with LOX IMVI melanoma it was 0.621 µM; in the assay with SF-268 CNS, 1.09 µM. The TGI was greater than 100 µM in the assay with SK-MEL-2 melanoma; greater than 73.1 µM with HOP-92 NSCLC; greater than 77.6 µM in the assay on HS 578T breast; greater than 100 µM with TK-10 renal; greater than 100 µM with MOLT-4 leukemia; greater than 100 µM with OVCAR-4 ovarian. For the same compound, the TGI in the assay with MALME-3M melanoma was greater than 76.1 µM; in the assay on SF-295 CNS, 7.06 µM; in the assay with LOX IMVI melanoma it was 17.2 µM; with SF-268 CNS it was greater than 72.6 µM.
Regarding `COc1ccccc1C(=O)Nc1ccc(Cl)c(C(=O)OC(C)C)c1`, the TGI was greater than 76.8 µM in the assay with SK-MEL-2 melanoma; greater than 100 µM in the assay with HOP-92 NSCLC; greater than 100 µM with HS 578T breast; greater than 100 µM in the assay on TK-10 renal; greater than 76.5 µM with MOLT-4 leukemia; greater than 100 µM with OVCAR-4 ovarian. For the same compound, the TGI with MALME-3M melanoma was greater than 100 µM; with SF-295 CNS, greater than 100 µM; in the assay on LOX IMVI melanoma, greater than 62.3 µM; in the assay on SF-268 CNS, greater than 95.2 µM.
Consider `CCN1Cc2c(/C=C/c3ccccc3)nc3ccc(OC)cc3c2N(c2cccc(Cl)c2)C1`, for which the GI50 with SK-MEL-2 melanoma is 1.72 µM; in the assay with HOP-92 NSCLC, 1.62 µM; in the assay with HS 578T breast, 1.75 µM; with TK-10 renal, 1.62 µM; in the assay with MOLT-4 leukemia, 1.45 µM; with OVCAR-4 ovarian, 2.8 µM. Moreover, the GI50 in the assay with MALME-3M melanoma is 1.68 µM; in the assay on SF-295 CNS, 1.69 µM; in the assay on LOX IMVI melanoma, 1.7 µM; with SF-268 CNS, 1.87 µM. Besides, the TGI is 3.56 µM in the assay on SK-MEL-2 melanoma; 3.77 µM in the assay on HOP-92 NSCLC; 4.88 µM in the assay with HS 578T breast; 3.43 µM in the assay on TK-10 renal; 5.02 µM with MOLT-4 leukemia; 8.44 µM in the assay on OVCAR-4 ovarian. For the same compound, the TGI in the assay on MALME-3M melanoma came out at 3.52 µM; in the assay on SF-295 CNS, 3.6 µM; with LOX IMVI melanoma it was 3.51 µM; in the assay on SF-268 CNS, 3.67 µM.
In the case of `COc1cc(-c2cn(-c3ccc(F)cc3)c(=O)[nH]2)cc(OC)c1OC`, the GI50 with SK-MEL-2 melanoma was greater than 100 µM; in the assay with HOP-92 NSCLC it was 79.4 µM; in the assay with HS 578T breast, 50.9 µM; with TK-10 renal it was greater than 100 µM; in the assay with MOLT-4 leukemia, greater than 100 µM; in the assay with OVCAR-4 ovarian it was greater than 100 µM. Also, the GI50 in the assay on MALME-3M melanoma, in the assay with SF-295 CNS, in the assay on LOX IMVI melanoma and in the assay with SF-268 CNS was greater than 100 µM in each case. In addition, the TGI in the assay on SK-MEL-2 melanoma, in the assay with HOP-92 NSCLC, with HS 578T breast, with TK-10 renal, in the assay on MOLT-4 leukemia and in the assay on OVCAR-4 ovarian was greater than 100 µM in each case. For the same compound, the TGI with MALME-3M melanoma, in the assay on SF-295 CNS, in the assay on LOX IMVI melanoma and in the assay with SF-268 CNS was greater than 100 µM each time.
As for `COc1ccc(-n2nc(C(=O)NCC(=O)Nc3nc4cc(OC)ccc4s3)c3ccccc3c2=O)cc1`, the GI50 is 1.69 µM in the assay on SK-MEL-2 melanoma; 0.572 µM in the assay with HOP-92 NSCLC; 2.54 µM in the assay with HS 578T breast; 0.389 µM with TK-10 renal; greater than 100 µM in the assay with MOLT-4 leukemia; 0.434 µM with OVCAR-4 ovarian. In addition, the GI50 with MALME-3M melanoma was 0.589 µM; with SF-295 CNS, 0.346 µM; with LOX IMVI melanoma it was 0.413 µM; in the assay with SF-268 CNS, 0.949 µM. Besides, the TGI in the assay on SK-MEL-2 melanoma was 5.12 µM; with HOP-92 NSCLC it was 1.68 µM; in the assay on HS 578T breast it was greater than 100 µM; in the assay with TK-10 renal it was 1.52 µM; with MOLT-4 leukemia, greater than 100 µM; in the assay on OVCAR-4 ovarian, 2.57 µM. Moreover, the TGI stood at 2.8 µM in the assay with MALME-3M melanoma, 1.62 µM with SF-295 CNS, 1.97 µM with LOX IMVI melanoma and 5.01 µM in the assay on SF-268 CNS.
